# Results taken from patent US9850283B2, “Macrocyclic inhibitors of the PD-1/PD-L1 and CD80(B7-1)/PD-L1 protein/protein interactions” (BRISTOL-MYERS SQUIBB COMPANY, priority 2013, dated 2017).
# Positions of bridges follow the written chain, without caps; N, C: chain ends. Non-standard residues stand in square brackets, D forms with d. Residues, ends and D or L forms follow the SMILES beside them. Hyp = O=C(O)[C@@H]1C[C@@H](O)CN1; tBuAla = CC(C)(C)C[C@H](N)C(=O)O; NMeNle = CCCC[C@H](NC)C(=O)O; NMeA = CN[C@@H](C)C(=O)O; Dab = NCC[C@H](N)C(=O)O; Dap = NC[C@H](N)C(=O)O
# Key:
# [1] = biological target: T1, LK35.2-hPD-L1 cells / PE-labeled PD-1-Ig (Homo sapiens, UniProt Q9NZQ7); assay: LK35.2-hPD-L1 cell binding high-content screening assay; format: cell-based; conditions: cell binding assay, cell line not given; cluster symbol; read-out: CBA IC50 cluster
# T1 construct: expressed in transfected cells; host or cells: LK35.2 mouse B cell line
# Method in brief: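 Mouse LK35.2 B cells stably over-expressing human PD-L1, cultured overnight, treated with compound plus PE-labeled human PD-1-Ig (1 nM final) in RPMI/10% FCS for 1 h at 37 °C. After washing, bound fluorescence quantified by high-content imaging.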
# Human PD-L1/PD-1 = biological target: T2, Human PD-L1/PD-1 (Homo sapiens, UniProt Q9NZQ7); assay: HTRF PD-1-Ig/PD-L1-His binding assay (human PD-L1); conditions: cluster symbol; read-out: HTRF IC50 cluster
# T2 construct: made in house; host or cells: HEK293T
# Method in brief: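 Readout: time-resolved FRET between Eu cryptate-labeled anti-Ig (1 nM final) and APC-labeled anti-His (20 nM final) antibodies. These detect interaction of Fc-fused PD-1 with His-tagged human PD-L1 in dPBS containing 0.1% BSA and 0.05% Tween-20.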
# T1 sequence (Q9NZQ7 19-290): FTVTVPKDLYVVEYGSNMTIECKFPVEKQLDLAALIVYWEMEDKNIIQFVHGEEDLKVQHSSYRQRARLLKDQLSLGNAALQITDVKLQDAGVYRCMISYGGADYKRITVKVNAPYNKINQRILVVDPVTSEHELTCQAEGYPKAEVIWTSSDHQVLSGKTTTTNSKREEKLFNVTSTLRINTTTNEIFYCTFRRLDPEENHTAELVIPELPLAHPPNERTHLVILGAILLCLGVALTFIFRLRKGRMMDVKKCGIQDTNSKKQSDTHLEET
# T2 sequence (Q9NZQ7 with tags, fused parts or gaps): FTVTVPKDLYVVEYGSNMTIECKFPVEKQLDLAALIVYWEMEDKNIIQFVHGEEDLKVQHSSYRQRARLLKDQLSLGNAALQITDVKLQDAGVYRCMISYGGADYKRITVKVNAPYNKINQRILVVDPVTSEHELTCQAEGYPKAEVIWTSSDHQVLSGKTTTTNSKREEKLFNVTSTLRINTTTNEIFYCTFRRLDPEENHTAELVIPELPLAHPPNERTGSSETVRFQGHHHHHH
Compound,IC50 [1] [nM],IC50 (Human PD-L1/PD-1) [nM]
CCCC[C@H]1C(=O)N(C)[C@@H](CCCC)C(=O)N[C@@H](CN)C(=O)N[C@H](C(=O)NCC(N)=O)CSCC(=O)N[C@@H](Cc2ccc(O)cc2)C(=O)N(C)[C@@H](C)C(=O)N[C@@H](CC(N)=O)C(=O)N2CCC[C@H]2C(=O)N[C@@H](CN)C(=O)N[C@@H](CC(C)C)C(=O)N2C[C@H](O)C[C@H]2C(=O)N[C@@H](Cc2c[nH]c3ccccc23)C(=O)N[C@@H](CCN)C(=O)N[C@@H](Cc2c[nH]c3ccccc23)C(=O)N1C [Example 5059] ({CH2CO}-Y[NMeA]NP[Dap]L[Hyp]W[Dab]W[NMeNle][NMeNle][Dap]CG-NH2; thioether N-14),4.78 to 72.9,0.385 to 6.74
CCCC[C@H]1C(=O)N(C)[C@@H](CCCC)C(=O)N[C@@H](CN)C(=O)N[C@H](C(=O)NCC(N)=O)CSCC(=O)N[C@@H](Cc2ccc(O)cc2)C(=O)N(C)[C@@H](C)C(=O)N[C@@H](CC(N)=O)C(=O)N2CCC[C@H]2C(=O)N[C@@H](CN)C(=O)N[C@@H](CCC(=O)O)C(=O)N2C[C@H](O)C[C@H]2C(=O)N[C@@H](Cc2c[nH]c3ccccc23)C(=O)N[C@@H](CCN)C(=O)N[C@@H](Cc2c[nH]c3ccccc23)C(=O)N1C [Example 5060] ({CH2CO}-Y[NMeA]NP[Dap]E[Hyp]W[Dab]W[NMeNle][NMeNle][Dap]CG-NH2; thioether N-14),4.78 to 72.9,0.385 to 6.74
CCCC[C@H]1C(=O)N(C)[C@@H](CCCC)C(=O)N[C@@H](CN)C(=O)N[C@H](C(=O)NCC(N)=O)CSCC(=O)N[C@@H](Cc2ccc(O)cc2)C(=O)N(C)[C@@H](C)C(=O)N[C@@H](CC(N)=O)C(=O)N2CCC[C@H]2C(=O)N[C@@H](CN)C(=O)N[C@@H](CCC(=O)O)C(=O)N2C[C@H](O)C[C@H]2C(=O)N[C@@H](Cc2c[nH]c3ccccc23)C(=O)N[C@@H](CO)C(=O)N[C@@H](Cc2c[nH]c3ccccc23)C(=O)N1C [Example 5061] ({CH2CO}-Y[NMeA]NP[Dap]E[Hyp]WSW[NMeNle][NMeNle][Dap]CG-NH2; thioether N-14),0.158 to 4.71,0.385 to 6.74
CCCC[C@H]1C(=O)N(C)[C@@H](CCCC)C(=O)N[C@@H](CN)C(=O)N[C@H](C(=O)NCC(N)=O)CSCC(=O)N[C@@H](Cc2ccc(O)cc2)C(=O)N(C)[C@@H](C)C(=O)N[C@@H](CC(N)=O)C(=O)N2CCC[C@H]2C(=O)N[C@@H](CN)C(=O)N[C@@H](CC(C)C)C(=O)N2C[C@H](O)C[C@H]2C(=O)N[C@@H](Cc2c[nH]c3ccccc23)C(=O)N[C@@H](CO)C(=O)N[C@@H](Cc2c[nH]c3ccccc23)C(=O)N1C [Example 5063] ({CH2CO}-Y[NMeA]NP[Dap]L[Hyp]WSW[NMeNle][NMeNle][Dap]CG-NH2; thioether N-14),0.158 to 4.71,0.385 to 6.74
CCCC[C@H]1C(=O)N(C)[C@@H](CCCC)C(=O)N[C@@H](CN)C(=O)N[C@H](C(=O)NCC(N)=O)CSCC(=O)N[C@@H](Cc2ccc(O)cc2)C(=O)N(C)[C@@H](C)C(=O)N[C@@H](CC(N)=O)C(=O)N2CCC[C@H]2C(=O)N[C@@H](Cc2c[nH]cn2)C(=O)N[C@@H](CCC(=O)O)C(=O)N2C[C@H](O)C[C@H]2C(=O)N[C@@H](Cc2c[nH]c3ccccc23)C(=O)N[C@@H](CCN)C(=O)N[C@@H](Cc2c[nH]c3ccccc23)C(=O)N1C [Example 5064] ({CH2CO}-Y[NMeA]NPHE[Hyp]W[Dab]W[NMeNle][NMeNle][Dap]CG-NH2; thioether N-14),0.158 to 4.71,0.385 to 6.74
CCCC[C@H]1C(=O)N(C)[C@@H](CCCC)C(=O)N[C@@H](CC(C)C)C(=O)N[C@H](C(=O)NCC(N)=O)CSCC(=O)N[C@@H](Cc2ccc(O)cc2)C(=O)N(C)[C@@H](C)C(=O)N[C@@H](CC(N)=O)C(=O)N2CCC[C@H]2C(=O)N[C@@H](Cc2c[nH]cn2)C(=O)N[C@@H](CCC(=O)O)C(=O)N2C[C@H](O)C[C@H]2C(=O)N[C@@H](Cc2c[nH]c3ccccc23)C(=O)N[C@@H](CCN)C(=O)N[C@@H](Cc2c[nH]c3ccccc23)C(=O)N1C [Example 5065] ({CH2CO}-Y[NMeA]NPHE[Hyp]W[Dab]W[NMeNle][NMeNle]LCG-NH2; thioether N-14),0.158 to 4.71,0.385 to 6.74
CCCC[C@H]1C(=O)N(C)[C@@H](CCCC)C(=O)N[C@@H](CC(C)C)C(=O)N[C@H](C(=O)NCC(N)=O)CSCC(=O)N[C@@H](Cc2ccc(O)cc2)C(=O)N(C)[C@@H](C)C(=O)N[C@@H](CC(=O)O)C(=O)N2CCC[C@H]2C(=O)N[C@@H](Cc2cnc[nH]2)C(=O)N[C@@H](CCC(=O)O)C(=O)N2C[C@H](O)C[C@H]2C(=O)N[C@@H](Cc2c[nH]c3ccccc23)C(=O)N[C@@H](CCN)C(=O)N[C@@H](Cc2c[nH]c3ccccc23)C(=O)N1C [Example 5066] ({CH2CO}-Y[NMeA]DPHE[Hyp]W[Dab]W[NMeNle][NMeNle]LCG-NH2; thioether N-14),0.158 to 4.71,0.385 to 6.74
CCCC[C@H]1C(=O)N(C)[C@@H](CCCC)C(=O)N[C@@H](CCCNC(=N)N)C(=O)N[C@H](C(=O)NCC(=O)O)CSCC(=O)N[C@@H](Cc2ccc(O)cc2)C(=O)N(C)[C@@H](C)C(=O)N[C@@H](CC(N)=O)C(=O)N2CCC[C@H]2C(=O)N[C@@H](Cc2cnc[nH]2)C(=O)N[C@@H](CC(C)C)C(=O)N2C[C@H](O)C[C@H]2C(=O)N[C@@H](Cc2c[nH]c3ccccc23)C(=O)N[C@@H](CO)C(=O)N[C@@H](Cc2c[nH]c3ccccc23)C(=O)N1C [Example 5068],0.158 to 4.71,6.76 to 30.3
CCCC[C@H]1C(=O)N(C)[C@@H](CCCC)C(=O)N[C@@H](CCC(=O)O)C(=O)N[C@H](C(=O)NCC(N)=O)CSCC(=O)N[C@@H](Cc2ccc(O)cc2)C(=O)N(C)[C@@H](C)C(=O)N[C@@H](CC(=O)O)C(=O)N2CCC[C@H]2C(=O)N[C@@H](Cc2cnc[nH]2)C(=O)N[C@@H](CCCCN)C(=O)N2C[C@H](O)C[C@H]2C(=O)N[C@@H](Cc2c[nH]c3ccccc23)C(=O)N[C@@H](CCCCN)C(=O)N[C@@H](Cc2c[nH]c3ccccc23)C(=O)N1C [Example 5069] ({CH2CO}-Y[NMeA]DPHK[Hyp]WKW[NMeNle][NMeNle]ECG-NH2; thioether N-14),0.158 to 4.71,0.385 to 6.74
CCCC[C@H]1C(=O)N(C)[C@@H](CCCC)C(=O)N[C@@H](CC(C)C)C(=O)N[C@H](C(=O)NCC(N)=O)CSCC(=O)N[C@@H](Cc2ccc(O)cc2)C(=O)N(C)[C@@H](C)C(=O)N[C@@H](CC(N)=O)C(=O)N2CCC[C@H]2C(=O)N[C@@H](CN)C(=O)N[C@@H](CC(C)C)C(=O)N2C[C@H](O)C[C@H]2C(=O)N[C@@H](Cc2c[nH]c3ccccc23)C(=O)N[C@@H](CO)C(=O)N[C@@H](Cc2c[nH]c3ccccc23)C(=O)N1C [Example 5070] ({CH2CO}-Y[NMeA]NP[Dap]L[Hyp]WSW[NMeNle][NMeNle]LCG-NH2; thioether N-14),0.158 to 4.71,0.385 to 6.74
CCCC[C@H]1C(=O)N(C)[C@@H](CCCC)C(=O)N[C@@H](CC(C)C)C(=O)N[C@H](C(=O)NCC(N)=O)CSCC(=O)N[C@@H](Cc2ccc(O)cc2)C(=O)N(C)[C@@H](C)C(=O)N[C@@H](CC(N)=O)C(=O)N2CCC[C@H]2C(=O)N[C@@H](CO)C(=O)N[C@@H](CC(C)C)C(=O)N2C[C@H](O)C[C@H]2C(=O)N[C@@H](Cc2c[nH]c3ccccc23)C(=O)N[C@@H](CCN)C(=O)N[C@@H](Cc2c[nH]c3ccccc23)C(=O)N1C [Example 5073] ({CH2CO}-Y[NMeA]NPSL[Hyp]W[Dab]W[NMeNle][NMeNle]LCG-NH2; thioether N-14),0.158 to 4.71,0.385 to 6.74
CCCC[C@H]1C(=O)N(C)[C@@H](CCCC)C(=O)N[C@@H](CC(C)C)C(=O)N[C@H](C(=O)NCC(N)=O)CSCC(=O)N[C@@H](Cc2ccc(O)cc2)C(=O)N(C)[C@@H](C)C(=O)N[C@@H](CC(N)=O)C(=O)N2CCC[C@H]2C(=O)N[C@@H](CO)C(=O)N[C@@H](CCC(=O)O)C(=O)N2C[C@H](O)C[C@H]2C(=O)N[C@@H](Cc2c[nH]c3ccccc23)C(=O)N[C@@H](CCN)C(=O)N[C@@H](Cc2c[nH]c3ccccc23)C(=O)N1C [Example 5074] ({CH2CO}-Y[NMeA]NPSE[Hyp]W[Dab]W[NMeNle][NMeNle]LCG-NH2; thioether N-14),0.158 to 4.71,0.385 to 6.74
CCCC[C@H]1C(=O)N(C)[C@@H](CCCC)C(=O)N[C@@H](CC(C)C)C(=O)N[C@H](C(=O)NCC(N)=O)CSCC(=O)N[C@@H](Cc2ccc(O)cc2)C(=O)N(C)[C@@H](C)C(=O)N[C@@H](CC(N)=O)C(=O)N2CCC[C@H]2C(=O)N[C@@H](Cc2c[nH]cn2)C(=O)N[C@@H](CCC(N)=O)C(=O)N2C[C@H](O)C[C@H]2C(=O)N[C@@H](Cc2c[nH]c3ccccc23)C(=O)N[C@@H](CO)C(=O)N[C@@H](Cc2c[nH]c3ccccc23)C(=O)N1C [Example 5075] ({CH2CO}-Y[NMeA]NPHQ[Hyp]WSW[NMeNle][NMeNle]LCG-NH2; thioether N-14),0.158 to 4.71,0.385 to 6.74
CCCC[C@H]1C(=O)N(C)[C@@H](CCCC)C(=O)N[C@@H](CC(C)(C)C)C(=O)N[C@H](C(=O)NCC(N)=O)CSCC(=O)N[C@@H](Cc2ccc(O)cc2)C(=O)N(C)[C@@H](C)C(=O)N[C@@H](CC(N)=O)C(=O)N2CCC[C@H]2C(=O)N[C@@H](Cc2c[nH]cn2)C(=O)N[C@@H](CCC(N)=O)C(=O)N2C[C@H](O)C[C@H]2C(=O)N[C@@H](Cc2c[nH]c3ccccc23)C(=O)N[C@@H](CO)C(=O)N[C@@H](Cc2c[nH]c3ccccc23)C(=O)N1C [Example 5076] ({CH2CO}-Y[NMeA]NPHQ[Hyp]WSW[NMeNle][NMeNle][tBuAla]CG-NH2; thioether N-14),4.78 to 72.9,6.76 to 30.3
